Drawing on patent US20220289753A1, “SHP2 INHIBITORS” (IRBM S.P.A., priority 2019, published 2022), this text covers IC50 for 27 compounds.

Where two headings read alike, the source gives them in different places.

Test [1] relates to ERK phosphorylation in KYSE-520 cells. Kind of test: Phospho-ERK cellular assay (Advanced phospho-ERK1/2 (Thr202/Tyr204) TR-FRET kit). Format: cell-based. To be noted: Homo sapiens, KYSE-520, 2 h, read-out: pERK IC50. As for the experimental part: Phospho-ERK Cellular Assay
ERK phosphorylation was detected using the “Advanced phospho-ERK1/2 (Thr202/Tyr204)” TR-FRET kit (Cisbio, Cat #64AERPEG/H), following the manufacturer reagents and instructions. […] After an overnight incubation, cells were treated with DMSO serial diluted compounds and incubated for 2 h at 37° C. After incubation, 2 μL/well of 4× Lysis Buffer (Cisbio 64KL1FDF), were added and incubated with cells for 30 min on gentle shaking. Finally, lysates were added with 2 μL/well of Eu cryptate (donor) and D2 (acceptor) conjugated antibodies (as provided by the Cisbio kit #64AERPEG/H) diluted 1:100 in Detection Buffer (as provided by the Cisbio kit #64AERPEG/H). Plates were then sealed and incubated at room temperature in the dark. After an overnight incubation, the TR-FRET signal was detected on a suitable reader (Envision, PerkinElmer). The lower the TR-FRET signal the higher the higher the SHP2 inhibition in cells. […] The percentage activity is fitted against the compound dilutions with a four-parameter logistic regression. The inflection point (i.e. the concentration at which half-maximal inhibition is achieved) is the IC50.

Test [2] addresses T1, SHP-2 enzyme (Met1-Leu525) (Homo sapiens, UniProt Q06124).
T1 construct: synthetized by Origene, Met1-Leu525, cat #TP750155; purchased Origene TP750155
T1 sequence (Q06124 1-525): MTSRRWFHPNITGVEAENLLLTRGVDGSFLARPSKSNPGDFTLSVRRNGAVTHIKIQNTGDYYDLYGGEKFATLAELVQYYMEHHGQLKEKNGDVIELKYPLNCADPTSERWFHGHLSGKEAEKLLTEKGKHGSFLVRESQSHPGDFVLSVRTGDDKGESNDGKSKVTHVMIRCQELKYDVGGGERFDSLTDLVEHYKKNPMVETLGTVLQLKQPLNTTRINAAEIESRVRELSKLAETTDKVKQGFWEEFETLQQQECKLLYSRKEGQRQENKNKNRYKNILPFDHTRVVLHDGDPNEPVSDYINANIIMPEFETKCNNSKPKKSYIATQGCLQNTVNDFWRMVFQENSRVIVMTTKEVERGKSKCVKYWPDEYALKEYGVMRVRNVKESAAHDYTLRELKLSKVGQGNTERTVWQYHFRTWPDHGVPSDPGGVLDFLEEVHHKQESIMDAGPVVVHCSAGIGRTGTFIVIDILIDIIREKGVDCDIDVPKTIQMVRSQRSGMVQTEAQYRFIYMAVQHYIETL
Kind of test: SHP2 inhibition enzymatic assay (DiFMUP substrate, IRS1 peptide activation). Format: biochemical. To be noted: SHP2 wt; activated by 500 nM IRS1 peptide; 75 μM DiFMUP substrate. The essentials: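 SHP-2 (Met1-Leu525, 0.5 nM final) preincubated 30 min with compounds and IRS1 activating peptide in HEPES pH 7.2 buffer with NaCl, KCl, EDTA, tween-20, 5 mM DTT. DiFMUP then added for 30 min at room temperature and fluorescence read. IC50 from four-parameter logistic fit of % inhibition.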

With `Nc1nccc(Sc2cnc3[nH]c(N4CCC5(CC4)Oc4ccccc4[C@H]5N)nc3n2)c1Cl` [Example 35, (R)-1′-(5-((2-amino-3-chloropyridin-4-yl)thio)-1H-imidazo[4,5-b]pyrazin-2-yl)-3H-spiro[benzofuran-2,4′-piperidin]-3-amine], the IC50 in test [1] (KYSE-520 cells, 2 h at 37° C., TR-FRET) is less than 1 µM.

Turning to `FC(F)(F)c1ncccc1Sc1cnc2[nH]c(NCC3CNC(c4ccccc4)C3)nc2n1` (stereo not drawn) [Example 128, N-((5-phenylpyrrolidin-3-yl)methyl)-5-((2-(trifluoromethyl)pyridin-3-yl)thio)-1H-imidazo[4,5-b]pyrazin-2-amine], the IC50 in test [1] is more than 5 µM.

Take `Cc1c(Cl)cccc1Sc1cnc2[nH]c(N3CCC(C)(N)CC3)nc2n1` [Example 114, 1-(5-((3-chloro-2-methylphenyl)thio)-1H-imidazo[4,5-b]pyrazin-2-yl)-4-methylpiperidin-4-amine]: the IC50 in test [2] was less than 0.5 µM.

For the compound `OCCN1CCC(CNc2nc3nc(Sc4cccnc4C(F)(F)F)cnc3[nH]2)CC1` [Example 82, 2-(4-(((5-((2-(trifluoromethyl)pyridin-3-yl)thio)-1H-imidazo[4,5-b]pyrazin-2-yl)amino)methyl)piperidin-1-yl)ethan-1-ol], in test [2], the IC50 was more than 3 µM.

Consider `CC1(C)C2CNCC1CN(c1nc3nc(Sc4cccnc4C(F)(F)F)cnc3[nH]1)C2` [Example 124, 2-(9,9-dimethyl-3,7-diazabicyclo[3.3.1]nonan-3-yl)-5-((2-(trifluoromethyl)pyridin-3-yl)thio)-1H-imidazo[4,5-b]pyrazine], for which the IC50 in test [1] was more than 5 µM.

Turning to `FC(F)(F)c1ncccc1Sc1cnc2[nH]c(N3CCC4CCC(C3)N4)nc2n1` (stereo not drawn) [Example 125, 2-(3,9-diazabicyclo[4.2.1]nonan-3-yl)-5-((2-(trifluoromethyl)pyridin-3-yl)thio)-1H-imidazo[4,5-b]pyrazine], the IC50 in test [1] was more than 5 µM.

In test [2], `CC(C)(CNc1nc2nc(Sc3cccnc3C(F)(F)F)cnc2[nH]1)N1CCOCC1` [Example 87, N-(2-methyl-2-morpholinopropyl)-5-((2-(trifluoromethyl)pyridin-3-yl)thio)-1H-imidazo[4,5-b]pyrazin-2-amine] came in with an IC50 of more than 3 µM.

On to `CC(N)C1CN(c2nc3nc(Sc4cccnc4C(F)(F)F)cnc3[nH]2)CCO1` (stereo not drawn) [Example 86, 1-(4-(5-((2-(trifluoromethyl)pyridin-3-yl)thio)-1H-imidazo[4,5-b]pyrazin-2-yl)morpholin-2-yl)ethan-1-amine], for which the IC50 in test [2] is 0.5 to 3 µM.

For `CC1(N)CCN(c2nc3nc(Sc4ccc(C(=O)O)cc4)cnc3[nH]2)CC1` [Example 95, 4-((2-(4-amino-4-methylpiperidin-1-yl)-1H-imidazo[4,5-b]pyrazin-5-yl)thio)benzoic acid], the IC50 in test [2] is less than 0.5 µM.

As for `CC(C)c1ccccc1Sc1cnc2[nH]c(N3CCC(C)(N)CC3)nc2n1` [Example 115, 1-(5-((2-isopropylphenyl)thio)-1H-imidazo[4,5-b]pyrazin-2-yl)-4-methylpiperidin-4-amine], in test [2], the IC50 lay in the range of 0.5 to 3 µM.

Consider `CC1(N)CCN(c2nc3nc(Sc4ccc(OC(F)(F)F)cc4)cnc3[nH]2)CC1` [Example 27, 4-methyl-1-(5-((4-(trifluoromethoxy)phenyl)thio)-1H-imidazo[4,5-b]pyrazin-2-yl)piperidin-4-amine], for which the IC50 in test [2] was more than 3 µM.

For `Cc1cccc(Sc2cnc3[nH]c(N4CCC(C)(N)CC4)nc3n2)c1C` [Example 39, 1-(5-((2,3-dimethylphenyl)thio)-1H-imidazo [4,5-b]pyrazin-2-yl)-4-methylpiperidin-4-amine], in test [2], the IC50 is less than 0.5 µM.

In test [2], `FC(F)(F)c1ncccc1Sc1cnc2[nH]c(N3CCC34CCNCC4)nc2n1` [Example 44, 2-(1,7-diazaspiro[3.5]nonan-1-yl)-5-((2-(trifluoromethyl)pyridin-3-yl)thio)-1H-imidazo[4,5-b]pyrazine] registered a 50% inhibitory concentration (IC50) of 0.5 to 3 µM.

On to `CC1(N)CCN(c2nc3nc(Sc4cccc5c4COC5)cnc3[nH]2)CC1` [Example 77, 1-(5-((1,3-dihydroisobenzofuran-4-yl)thio)-1H-imidazo[4,5-b]pyrazin-2-yl)-4-methylpiperidin-4-amine], for which, in test [2], the IC50 is less than 0.5 µM.

With `Cn1nc(-c2ccc(Sc3cnc4[nH]c(N5CCC(C)(N)CC5)nc4n3)s2)cc1C(F)(F)F` [Example 57, 4-methyl-1-(5-((5-(1-methyl-5-(trifluoromethyl)-1H-pyrazol-3-yl)thiophen-2-yl)thio)-1H-imidazo[4,5-b]pyrazin-2-yl)piperidin-4-amine], the IC50 in test [2] was more than 3 µM.

In test [2], `FC(F)(F)c1ncccc1Sc1cnc2[nH]c(NCCc3cn4ccccc4n3)nc2n1` [Example 43, N-(2-(imidazo[1,2-a]pyridin-2-yl)ethyl)-5-((2-(trifluoromethyl)pyridin-3-yl)thio)-1H-imidazo[4,5-b]pyrazin-2-amine] showed a concentration for half-maximal inhibition (IC50) of 0.5 to 3 µM.

In test [2], `CNC1CCN(c2nc3nc(Sc4cccnc4C(F)(F)F)cnc3[nH]2)CC1` [Example 16, N-methyl-1-(5-((2-(trifluoromethyl)pyridin-3-yl)thio)-1H-imidazo[4,5-b]pyrazin-2-yl)piperidin-4-amine] had an IC50 of 0.5 to 3 µM.

Turning to `CC1(N)CCN(c2nc3nc(Sc4cccc(F)c4F)cnc3[nH]2)CC1` [Example 21, 1-(5-((2,3-difluorophenyl)thio)-1H-imidazo[4,5-b]pyrazin-2-yl)-4-methylpiperidin-4-amine], the IC50 in test [2] was in the range of 0.5 to 3 µM.

With `FC(F)(F)c1ncccc1Sc1cnc2nc(NC3CCNC4(CCC4)C3)[nH]c2n1` (stereo not drawn) [Example 126, N-(5-azaspiro[3.5]nonan-8-yl)-6-((2-(trifluoromethyl)pyridin-3-yl)thio)-1H-imidazo[4,5-b]pyrazin-2-amine], the IC50 in test [1] is more than 5 µM.

In test [2], `CC1(N)CCN(c2nc3nc(Sc4ncnc5ccccc45)cnc3[nH]2)CC1` [Example 101, 4-methyl-1-(5-(quinazolin-4-ylthio)-1H-imidazo[4,5-b]pyrazin-2-yl)piperidin-4-amine] registered an IC50 of more than 3 µM.

`FC(F)(F)c1ncccc1Sc1cnc2[nH]c(NCc3cccnc3N3CCOCC3)nc2n1` [Example 112, N-((2-morpholinopyridin-3-yl)methyl)-5-((2-(trifluoromethyl)pyridin-3-yl)thio)-1H-imidazo[4,5-b]pyrazin-2-amine] gave an IC50 in test [2] of more than 3 µM.

Take `CC1(N)CCN(c2nc3nc(Sc4cccc(C(F)(F)F)n4)cnc3[nH]2)CC1` [Example 47, 4-methyl-1-(5-((6-(trifluoromethyl)pyridin-2-yl)thio)-1H-imidazo[4,5-b]pyrazin-2-yl)piperidin-4-amine]: the IC50 in test [2] fell in the range of 0.5 to 3 µM.

Consider `Nc1nccc(Sc2cnc3[nH]c(N4CCC5(CC4)Cc4ccc(O)cc4[C@H]5N)nc3n2)c1Cl` [Example 208, (S)-1-amino-1′-(5-((2-amino-3-chloropyridin-4-yl)thio)-1H-imidazo[4,5-b]pyrazin-2-yl)-1,3-dihydrospiro[indene-2,4′-piperidin]-6-ol], for which the IC50 in test [2] is less than 0.5 µM.

In turn, `CC1(N)CCN(c2nc3nc(Sc4ccccc4S(C)(=O)=O)cnc3[nH]2)CC1` [Example 117, 4-methyl-1-(5-((2-(methylsulfonyl)phenyl)thio)-1H-imidazo[4,5-b]pyrazin-2-yl)piperidin-4-amine] returned a half-inhibitory concentration (IC50) in test [2] of more than 3 µM.

In turn, `FC(F)(F)c1ncccc1Sc1cnc2[nH]c(NC3CC4(CNC4)C3)nc2n1` [Example 84, N-(2-azaspiro[3.3]heptan-6-yl)-5-((2-(trifluoromethyl)pyridin-3-yl)thio)-1H-imidazo[4,5-b]pyrazin-2-amine] displayed an IC50 in test [2] of 0.5 to 3 µM.

Turning to `CC1(N)CCN(c2nc3nc(Sc4cccc(S(F)(F)(F)(F)F)c4)cnc3[nH]2)CC1` [Example 93, 4-methyl-1-(5-((3-(pentafluoro-l6-sulfaneyl)phenyl)thio)-1H-imidazo[4,5-b]pyrazin-2-yl)piperidin-4-amine], in test [2], the IC50 was 0.5 to 3 µM.

Turning to `CCn1c(N2CCC(C)(N)CC2)nc2nc(Sc3cccnc3C(F)(F)F)cnc21` [Example 63, 1-(1-ethyl-5-((2-(trifluoromethyl)pyridin-3-yl)thio)-1H-imidazo[4,5-b]pyrazin-2-yl)-4-methylpiperidin-4-amine], in test [2], the IC50 fell in the range of 0.5 to 3 µM.
